{
  "source": "PubChem BioAssay AID248",
  "about": "(DTP/NCI, 2004)",
  "test_system": "L1210 leukemia ip in BDF1 mice, survival T/C",
  "test": "NCI In Vivo Anticancer Drug Screen. Data for tumor model L1210 Leukemia (intraperitoneal) in B6D2F1 (BDF1) mice",
  "conditions": "endpoint: mean survival time, higher = longer survival",
  "in_short": "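Tumor was transplanted into mice, which were then dosed with test compound or vehicle alone. Survival was recorded for each group, and the treated figure was expressed relative to the control figure.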",
  "key": {"[1]": {"conditions": "dose: 100.0 mg/kg/injection, schedule: Q01DX001 (ip), vehicle: carboxymethylcellulose (CMC)"}, "[2]": {"conditions": "dose: 200.0 mg/kg/injection, schedule: Q01DX001 (ip), vehicle: carboxymethylcellulose (CMC)"}, "[3]": {"conditions": "dose: 400.0 mg/kg/injection, schedule: Q01DX001 (ip), vehicle: carboxymethylcellulose (CMC)"}},
  "note": "Several values for one entry are separate records, joined by “and”; a condition that tells them apart may be missing. Equal values may be shown once. Toxic doses and inconclusive results are not listed.",
  "data": [
    {"smiles": "C#CCN1CCCC1", "values": [
      {"measurement": "T/C", "setting": "dose: 12.5 mg/kg/injection, schedule: Q04DX003 (ip), vehicle: saline", "value": "92 % of control"},
      {"measurement": "T/C", "setting": "dose: 25.0 mg/kg/injection, schedule: Q04DX003 (ip), vehicle: saline", "value": "92 % of control"},
      {"measurement": "T/C", "setting": "dose: 50.0 mg/kg/injection, schedule: Q04DX003 (ip), vehicle: saline", "value": "95 % of control"}
    ]},
    {"smiles": "O=C(OCc1ccccc1CN1CCCCC1)c1ccc([N+](=O)[O-])cc1Cl", "values": [
      {"measurement": "T/C", "setting": "dose: 100.0 mg/kg/injection, schedule: Q04DX002 (ip), vehicle: Klucel (hydroxypropylcellulose) (HPC)", "value": "98 % of control"},
      {"measurement": "T/C", "setting": "dose: 200.0 mg/kg/injection, schedule: Q04DX002 (ip), vehicle: Klucel (hydroxypropylcellulose) (HPC)", "value": "98 % of control"},
      {"measurement": "T/C", "setting": "dose: 400.0 mg/kg/injection, schedule: Q04DX002 (ip), vehicle: Klucel (hydroxypropylcellulose) (HPC)", "value": "91 % of control"}
    ]},
    {"smiles": "CCOc1ccc(Nc2c3ccccc3nc3ccccc23)cc1", "values": [
      {"measurement": "T/C", "setting": "dose: 12.5 mg/kg/injection, schedule: Q01DX009 (ip), vehicle: saline with Tween-80", "value": "102 % of control"},
      {"measurement": "T/C", "setting": "dose: 20.0 mg/kg/injection, schedule: Q01DX009 (ip), vehicle: saline with Tween-80", "value": "108 % of control"},
      {"measurement": "T/C", "setting": "dose: 25.0 mg/kg/injection, schedule: Q01DX009 (ip), vehicle: saline with Tween-80", "value": "123 % of control"},
      {"measurement": "T/C", "setting": "dose: 30.0 mg/kg/injection, schedule: Q01DX009 (ip), vehicle: saline with Tween-80", "value": "110 % of control"},
      {"measurement": "T/C", "setting": "dose: 44.0 mg/kg/injection, schedule: Q01DX009 (ip), vehicle: saline with Tween-80", "value": "105 % of control"},
      {"measurement": "T/C", "setting": "dose: 50.0 mg/kg/injection, schedule: Q01DX009 (ip), vehicle: saline with Tween-80", "value": "123 % of control"},
      {"measurement": "T/C", "setting": "dose: 66.0 mg/kg/injection, schedule: Q01DX009 (ip), vehicle: saline with Tween-80", "value": "111 % of control and 123 % of control"},
      {"measurement": "T/C", "setting": "dose: 100.0 mg/kg/injection, schedule: Q01DX009 (ip), vehicle: saline with Tween-80", "value": "94 % of control"}
    ]},
    {"smiles": "SC1c2cc(Cl)ccc2-c2ccc(Cl)cc21", "values": [
      {"measurement": "T/C", "setting": "[1]", "value": "92 % of control"},
      {"measurement": "T/C", "setting": "[2]", "value": "92 % of control"},
      {"measurement": "T/C", "setting": "[3]", "value": "92 % of control"}
    ]},
    {"smiles": "CCCCCCCCCCCCCCCCOc1ccccc1/C=N/O", "values": [
      {"measurement": "T/C", "setting": "dose: 100.0 mg/kg/injection, schedule: Q04DX003 (ip), vehicle: saline with Tween-80", "value": "94 % of control"},
      {"measurement": "T/C", "setting": "dose: 200.0 mg/kg/injection, schedule: Q04DX003 (ip), vehicle: saline with Tween-80", "value": "95 % of control"},
      {"measurement": "T/C", "setting": "dose: 400.0 mg/kg/injection, schedule: Q04DX003 (ip), vehicle: saline with Tween-80", "value": "90 % of control"}
    ]},
    {"smiles": "NC(N)=NCCCC(N=Cc1ccccc1)C(=O)O", "note": "(centres undefined)", "values": [
      {"measurement": "T/C", "setting": "dose: 100.0 mg/kg/injection, schedule: Q01DX009 (ip), vehicle: saline", "value": "97 % of control"},
      {"measurement": "T/C", "setting": "dose: 200.0 mg/kg/injection, schedule: Q01DX009 (ip), vehicle: saline", "value": "101 % of control"},
      {"measurement": "T/C", "setting": "dose: 400.0 mg/kg/injection, schedule: Q01DX009 (ip), vehicle: saline", "value": "98 % of control"}
    ]},
    {"smiles": "CN(C)c1ccc2c(c1)/C(=N/O)c1ccccc1-2", "values": [
      {"measurement": "T/C", "setting": "[1]", "value": "103 % of control"},
      {"measurement": "T/C", "setting": "[2]", "value": "105 % of control"},
      {"measurement": "T/C", "setting": "[3]", "value": "100 % of control"}
    ]},
    {"smiles": "O=[N+]([O-])c1ccc(S(=O)(=O)OCC2CO2)cc1", "note": "(centres undefined)", "values": [
      {"measurement": "T/C", "setting": "dose: 100.0 mg/kg/injection, schedule: Q01DX008 (ip), vehicle: Klucel (hydroxypropylcellulose) (HPC)", "value": "108 % of control"},
      {"measurement": "T/C", "setting": "dose: 200.0 mg/kg/injection, schedule: Q01DX008 (ip), vehicle: Klucel (hydroxypropylcellulose) (HPC)", "value": "95 % of control"},
      {"measurement": "T/C", "setting": "dose: 400.0 mg/kg/injection, schedule: Q01DX008 (ip), vehicle: Klucel (hydroxypropylcellulose) (HPC)", "value": "89 % of control"}
    ]},
    {"smiles": "CC(=O)OCC1CCC(NC(=O)N(CCCl)N=O)CC1", "note": "(centres undefined)", "values": [
      {"measurement": "T/C", "setting": "dose: 3.0 mg/kg/injection, schedule: Q01DX001 (ip), vehicle: Klucel (hydroxypropylcellulose) (HPC)", "value": "104 % of control"},
      {"measurement": "T/C", "setting": "dose: 5.0 mg/kg/injection, schedule: Q01DX001 (ip), vehicle: Klucel (hydroxypropylcellulose) (HPC)", "value": "114 % of control"},
      {"measurement": "T/C", "setting": "dose: 8.0 mg/kg/injection, schedule: Q01DX001 (ip), vehicle: Klucel (hydroxypropylcellulose) (HPC)", "value": "167 % of control"},
      {"measurement": "T/C", "setting": "dose: 12.0 mg/kg/injection, schedule: Q01DX001 (ip), vehicle: Klucel (hydroxypropylcellulose) (HPC)", "value": "221 % of control"},
      {"measurement": "T/C", "setting": "dose: 18.0 mg/kg/injection, schedule: Q01DX001 (ip), vehicle: Klucel (hydroxypropylcellulose) (HPC)", "value": "270 % of control and 316 % of control"},
      {"measurement": "T/C", "setting": "dose: 26.0 mg/kg/injection, schedule: Q01DX001 (ip), vehicle: Klucel (hydroxypropylcellulose) (HPC)", "value": "316 % of control"},
      {"measurement": "T/C", "setting": "dose: 40.0 mg/kg/injection, schedule: Q01DX001 (ip), vehicle: Klucel (hydroxypropylcellulose) (HPC)", "value": "208 % of control"}
    ]},
    {"smiles": "CCOC(C)C1C2CCCC(C)C21", "note": "(centres undefined)", "values": [
      {"measurement": "T/C", "setting": "dose: 100.0 mg/kg/injection, schedule: Q04DX003 (ip), vehicle: saline", "value": "102 % of control"},
      {"measurement": "T/C", "setting": "dose: 200.0 mg/kg/injection, schedule: Q04DX003 (ip), vehicle: saline", "value": "96 % of control"},
      {"measurement": "T/C", "setting": "dose: 400.0 mg/kg/injection, schedule: Q04DX003 (ip), vehicle: saline", "value": "93 % of control"}
    ]}
  ]
}
